Experimental data taken from the NIST ThermoML archive (doi:10.1021/acs.jced.6b00496).

Experiment: xn = mol fraction of the nth substance listed
Details: 81.5 kPa, Liquid; for speed of sound: Sing-around technique in a fixed-path interferometer; for mass density: Vibrating tube method

CCn1cc[n+](C)c1.F[B-](F)(F)F [1-ethyl-3-methylimidazolium tetrafluoroborate] + CN(C)C=O
Details	mass density [kg/m3]	speed of sound [m/s]
293.15 K, x1 = 0.0997	1019.18	1524.5
293.15 K, x1 = 0.2042	1075.44	1552.3
293.15 K, x1 = 0.2983	1116.82	1571.7
293.15 K, x1 = 0.4111	1157.47	1589.3
293.15 K, x1 = 0.5003	1184.76	1600.9
293.15 K, x1 = 0.585	1206.75	1609.6
293.15 K, x1 = 0.6965	1231.36	1618.8
293.15 K, x1 = 0.7833	1247.19	1625.5
293.15 K, x1 = 0.9134	1267.67	1633.1
293.15 K, x1 = 1	1285.95	1640.4
298.15 K, x1 = 0.0997	1014.69	1506.5
298.15 K, x1 = 0.2042	1071.12	1535.6
298.15 K, x1 = 0.2983	1112.62	1555.9
298.15 K, x1 = 0.4111	1153.38	1574.6
298.15 K, x1 = 0.5003	1180.74	1586.9
298.15 K, x1 = 0.585	1202.77	1596.1
298.15 K, x1 = 0.6965	1227.44	1605.9
298.15 K, x1 = 0.7833	1243.3	1612.9
298.15 K, x1 = 0.9134	1263.82	1620.9
298.15 K, x1 = 1	1282.14	1628.4
303.15 K, x1 = 0.0997	1010.19	1488.6
303.15 K, x1 = 0.2042	1066.81	1519
303.15 K, x1 = 0.2983	1108.42	1540.4
303.15 K, x1 = 0.4111	1149.29	1560.1
303.15 K, x1 = 0.5003	1176.72	1573
303.15 K, x1 = 0.585	1198.81	1582.7
303.15 K, x1 = 0.6965	1223.53	1593
303.15 K, x1 = 0.7833	1239.43	1600.5
303.15 K, x1 = 0.9134	1259.99	1608.8
303.15 K, x1 = 1	1278.34	1616
308.15 K, x1 = 0.0997	1005.7	1470.8
308.15 K, x1 = 0.2042	1062.49	1502.6
308.15 K, x1 = 0.2983	1104.23	1524.9
308.15 K, x1 = 0.4111	1145.23	1545.6
308.15 K, x1 = 0.5003	1172.72	1559.2
308.15 K, x1 = 0.585	1194.86	1569.4
308.15 K, x1 = 0.6965	1219.63	1580.3
308.15 K, x1 = 0.7833	1235.57	1588.2
308.15 K, x1 = 0.9134	1256.17	1596.9
308.15 K, x1 = 1	1274.55	1604.9
313.15 K, x1 = 0.0997	1001.2	1453.1
313.15 K, x1 = 0.2042	1058.19	1486.2
313.15 K, x1 = 0.2983	1100.05	1509.6
313.15 K, x1 = 0.4111	1141.17	1531.3
313.15 K, x1 = 0.5003	1168.73	1545.6
313.15 K, x1 = 0.585	1190.92	1556.3
313.15 K, x1 = 0.6965	1215.75	1567.7
313.15 K, x1 = 0.7833	1231.73	1576
313.15 K, x1 = 0.9134	1252.37	1585
313.15 K, x1 = 1	1270.78	1593.4
318.15 K, x1 = 0.0997	996.709	1435.6
318.15 K, x1 = 0.2042	1053.89	1470
318.15 K, x1 = 0.2983	1095.88	1494.4
318.15 K, x1 = 0.4111	1137.12	1517.1
318.15 K, x1 = 0.5003	1164.76	1532
318.15 K, x1 = 0.585	1187	1543.3
318.15 K, x1 = 0.6965	1211.89	1555.3
318.15 K, x1 = 0.7833	1227.91	1563.9
318.15 K, x1 = 0.9134	1248.58	1573.3
318.15 K, x1 = 1	1267.03	1582
323.15 K, x1 = 0.0997	992.209	1418.1
323.15 K, x1 = 0.2042	1049.59	1453.8
323.15 K, x1 = 0.2983	1091.72	1479.3
323.15 K, x1 = 0.4111	1133.08	1503
323.15 K, x1 = 0.5003	1160.79	1518.6
323.15 K, x1 = 0.585	1183.1	1530.4
323.15 K, x1 = 0.6965	1208.05	1542.9
323.15 K, x1 = 0.7833	1224.11	1551.9
323.15 K, x1 = 0.9134	1244.82	1561.7
323.15 K, x1 = 1	1263.3	1570.6
328.15 K, x1 = 0.0997	987.708	1400.7
328.15 K, x1 = 0.2042	1045.31	1437.8
328.15 K, x1 = 0.2983	1087.57	1464.2
328.15 K, x1 = 0.4111	1129.05	1489
328.15 K, x1 = 0.5003	1156.85	1505.2
328.15 K, x1 = 0.585	1179.21	1517.6
328.15 K, x1 = 0.6965	1204.22	1530.6
328.15 K, x1 = 0.7833	1220.32	1540
328.15 K, x1 = 0.9134	1241.07	1550.1
328.15 K, x1 = 1	1259.58	1559.4
333.15 K, x1 = 0.0997	983.204	1383.3
333.15 K, x1 = 0.2042	1041.01	1421.8
333.15 K, x1 = 0.2983	1083.42	1449.3
333.15 K, x1 = 0.4111	1125.03	1475
333.15 K, x1 = 0.5003	1152.91	1492
333.15 K, x1 = 0.585	1175.33	1504.8
333.15 K, x1 = 0.6965	1200.41	1518.4
333.15 K, x1 = 0.7833	1216.55	1528.2
333.15 K, x1 = 0.9134	1237.34	1538.7
333.15 K, x1 = 1	1255.88	1548.2
338.15 K, x1 = 0.0997	978.699	1366.1
338.15 K, x1 = 0.2042	1036.73	1405.9
338.15 K, x1 = 0.2983	1079.28	1434.5
338.15 K, x1 = 0.4111	1121.03	1461.2
338.15 K, x1 = 0.5003	1148.99	1478.9
338.15 K, x1 = 0.585	1171.47	1492.2
338.15 K, x1 = 0.6965	1196.61	1506.4
338.15 K, x1 = 0.7833	1212.8	1516.5
338.15 K, x1 = 0.9134	1233.63	1527.4
338.15 K, x1 = 1	1252.2	1537.2
343.15 K, x1 = 0.0997	974.184	1348.9
343.15 K, x1 = 0.2042	1032.45	1390.2
343.15 K, x1 = 0.2983	1075.15	1419.8
343.15 K, x1 = 0.4111	1117.03	1447.5
343.15 K, x1 = 0.5003	1145.07	1465.8
343.15 K, x1 = 0.585	1167.62	1479.7
343.15 K, x1 = 0.6965	1192.82	1494.4
343.15 K, x1 = 0.7833	1209.06	1504.9
343.15 K, x1 = 0.9134	1229.93	1516.1
343.15 K, x1 = 1	1248.54	1526.2
